Data from PubChem BioAssay (NCI).
Values joined by “and” are separate entries in the source; they are usually repeats but may differ in a detail not shown here. Equal values may be shown once.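 Five concentrations, 48 hours, 96-well plates. The concentration for 50% growth inhibition is given as GI50. TGI is the concentration that stops growth completely.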

Tests used:
Experiment in all cases: inhibition of tumour cell growth, NCI panel, 48 h
A498 renal = test system: A498 renal
HOP-92 NSCLC = test system: HOP-92 NSCLC
KM12 colon = test system: KM12 colon
MCF7 breast = test system: MCF7 breast
MDA-MB-435 = test system: MDA-MB-435
OVCAR-3 ovarian = test system: OVCAR-3 ovarian
SF-539 CNS = test system: SF-539 CNS
SN12C renal = test system: SN12C renal
SNB-19 CNS = test system: SNB-19 CNS
U251 CNS = test system: U251 CNS

| SMILES | TGI (A498 renal) | TGI (HOP-92 NSCLC) | TGI (KM12 colon) [µM] | TGI (MCF7 breast) [µM] | TGI (MDA-MB-435) [µM] | TGI (OVCAR-3 ovarian) | TGI (SF-539 CNS) | TGI (SN12C renal) | TGI (SNB-19 CNS) [µM] | TGI (U251 CNS) | GI50 (A498 renal) [µM] | GI50 (HOP-92 NSCLC) [µM] | GI50 (KM12 colon) [µM] | GI50 (MCF7 breast) [µM] | GI50 (MDA-MB-435) [µM] | GI50 (OVCAR-3 ovarian) [µM] | GI50 (SF-539 CNS) | GI50 (SN12C renal) [µM] | GI50 (SNB-19 CNS) [µM] | GI50 (U251 CNS) [µM] |
| --- | --- | --- | --- | --- | --- | --- | --- | --- | --- | --- | --- | --- | --- | --- | --- | --- | --- | --- | --- | --- |
| CC(C)NC(=O)OCc1c(COC(=O)NC(C)C)c(-c2ccc(Cl)c(Cl)c2)n2c1CCC2 | 43.3 µM | 52.2 µM | 73.1 | > 100 | > 100 | 69.9 µM | 65.4 µM | 68.2 µM | 81 | 71.8 µM |  |  |  |  |  |  |  |  |  |  |
| COc1ccc2c(c1)/C(=C\c1c(Cl)n(C)c3ccccc13)C(=O)N2 | 4.31 µM | 29.4 µM | 26.4 | > 38.7 | 1.26 | 1.91 µM | 3.33 µM | 20.1 µM | 23 | 10.5 µM | 0.611 | 5.5 | 9.06 | 0.682 | 0.286 | 0.633 | 0.672 µM | 2.57 | 1.85 | 0.817 |
| COc1ccc(OC)c(/C=C2\COc3ccc(O)c(O)c3C2=O)c1 | 23.6 µM | 8.86 µM | 3.92 | 14.4 | 5.48 | 5.31 µM | 5.19 µM | 11.7 µM | 11.1 | 10.5 µM | 11.2 | 2.8 | 1.73 | 1.2 | 1.97 | 1.36 | 2.23 µM | 2.55 | 3.09 | 2.21 |
| Cc1[nH]nc2ccc3nc(-c4ccc5[nH]ncc5c4)c4c(c3c12)CCCC4 | 1.8 µM | 6 µM | 13.6 | 17.1 | 12.9 | 10.6 µM | 8.44 µM | 12.7 µM | 12.1 | 13.9 µM | 0.28 | 1.91 | 0.63 | 3.54 | 1.23 | 2.07 | 1.62 µM | 2.09 | 2.62 | 0.92 |
| Cc1ccc(-c2nc(N)c(C#N)c3c2CCOc2c-3ccc3ccccc23)cc1 | 0.609 µM | 7.44 µM | 48.6 | > 34.4 | 0.459 | 1.86 µM | 3.48 µM | 53.9 µM | > 100 | 4.25 µM | 0.0794 | 0.334 | 0.203 | 0.284 | 0.0309 | 0.069 | 0.457 µM | 12.3 | 2.08 | 0.222 |
| N#Cc1c(N)nc(NCc2ccccc2)c(C#N)c1-c1ccccc1Cl | 46.9 µM | 25.5 µM | > 100 | > 100 | > 100 | 49.7 µM | 40.5 µM | 25.1 µM | > 100 | 10.3 µM | 19.2 | 3.57 | 47 | 20 | 21.8 | 18.4 | 17.9 µM | 4.53 | 23.4 | 2.46 |
| Nc1ccc(-c2nc3ccccc3o2)cc1S | 70.6 µM | 42.3 µM | 35.2 | 38.3 | 36.9 | 31 µM | 31.4 µM | 27.5 µM | 81.3 | 22.7 µM | 28.3 | 18.8 | 8.1 | 12.1 | 17.8 | 15.8 | 17.6 µM | 13.2 | 22.9 | 10.8 |
| O=C(Nc1ccc(OCc2nnc(-c3ccccc3)o2)c(F)c1)Nc1ccc(Cl)c(C(F)(F)F)c1 | 4.25 µM | 5.17 µM | 5.09 | 8.93 | > 100 | 7.25 µM | 13 µM | 6.23 µM | 16.7 | 4.68 µM | 1.61 | 1.78 | 1.47 | 2.29 | 2.71 | 2.06 | 2.41 µM | 1.91 | 2.35 | 1.54 |
| COc1cccc(Cn2c(-c3nonc3NC(C)=O)nc3ccccc32)c1 | 6.53 µM | 17.6 µM | > 100 | > 100 | 5.48 | > 100 µM | > 100 µM | > 100 µM | > 100 | 35.5 µM | 0.426 | 2.16 | 4 | 4.04 | 0.642 | 6.56 | 3.65 µM | 5.48 | 7.15 | 3.94 |
| CC1(C)N=C(N)N=C(N)N1c1cccc(CCCCOc2ccccc2)c1 | > 81.3 µM | 30.3 µM | 25 | 17.5 | 25 | 21 µM | 17 µM | 46.1 µM | > 77.4 | 55.7 µM | 1.8 | 2.26 | 0.0398 | 0.05 | < 0.0194 | 0.547 | 0.127 µM | 0.14 | 0.326 | 0.0488 |
| OCC1OC(n2cnc3c2NC=NC[C@H]3O)CC1O (stereo partly specified) | 481 µM and > 588 µM | 454 µM and > 588 µM | 500 | 500 | > 500 | 500 µM and > 588 µM | 461 µM and > 588 µM | 500 µM and > 588 µM | 500 | 500 µM and > 588 µM | > 588 | > 588 |  |  |  | > 588 | 405 µM and > 588 µM | > 588 |  | > 588 |
